Data published in US20110306623A1, “NOVEL COMPOUNDS COMPRISING A 3-(5-ALKOXYPYRIMIDIN-2-YL) PYRIMIDIN-4(3H)-ONE STRUCTURE AND DRUGS THAT COMPRISE SAME” (KOWA COMPANY, LTD., priority 2009, published 2011).

Assays:
[1] = tested on: angiotensin II-induced blood pressure increase; experiment: Inhibitory activity on angiotensin II-induced blood pressure increase; type: in vivo; settings: male SD rat, FIG. 1
Protocol: Inhibitory Activity on Angiotensin II-Induced Blood Pressure Increase
The in vivo angiotensin II antagonist activity of the Compound a and the Compound B was evaluated by following, as an index, the blood pressure increase induced by intravenous injection of angiotensin II.
A male SD rat (10 to 12-week old) was anesthetized with pentobarbital, and a cannular for measuring blood pressure was inserted into the right femoral artery while a cannular for injecting angiotensin II was inserted into the right jugular vein, the cannulars were then fixed on the back side of the neck as exposed.
One day after the surgery, the rat was subjected to the test under unanaesthetized, unstrained, and unfasted condition. The artery cannular was connected to a blood pressure transducer, and the blood pressure and heart rate were continuously recorded on a polygraph with an aid of an amplifier. Once the blood pressure and heart rate are stabilized, angiotensin II (0.1 nmol/kg) was administered via the vein cannular. The angiotensin II was repeatedly administered until a stable hypertensive response is obtained. After that, the Compound a (1 mg/kg or 3 mg/kg) or the Compound B (3 mg/kg) was orally administered, and the hypertensive response induced by angiotensin II was observed over time until 24 hours after the administration. […]

human PPAR 2 = target: T1, human PPAR 2 (Homo sapiens, UniProt P37231); experiment: PPAR activating activity, Gal4-PPAR chimera luciferase transfection assay using COS7 cells; type: cell-based; settings: relative to Rosiglitazone
T1 construct: the amino acids 182 to 505 of human PPAR 2; expressed in transfected cells; host or cells: COS7 cells
T1 sequence (P37231 182-505): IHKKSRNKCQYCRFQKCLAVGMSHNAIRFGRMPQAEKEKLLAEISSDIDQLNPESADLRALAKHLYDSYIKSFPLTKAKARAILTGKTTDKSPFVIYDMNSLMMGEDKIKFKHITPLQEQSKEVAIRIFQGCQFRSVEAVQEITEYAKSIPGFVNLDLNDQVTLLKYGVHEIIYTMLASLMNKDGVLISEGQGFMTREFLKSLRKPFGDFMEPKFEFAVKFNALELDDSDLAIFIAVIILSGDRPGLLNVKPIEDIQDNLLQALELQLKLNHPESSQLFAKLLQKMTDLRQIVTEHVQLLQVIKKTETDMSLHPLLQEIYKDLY
Protocol: PPAR Activating Activity The agonist activity of the Compound a and the Compound b on PPAR was measured based on the transfection assay using COS7 cells (DS Pharma Biomedical Co., Ltd., Osaka, Japan), which are the cell line derived from the kidney of the African green monkey. COS7 cells were cultured under 5% CO2 concentration, and DMEM medium containing 10% fetal bovine serum, glutamic acid, and antibiotics was used as a medium. As an expression vector, a chimera in which DNA binding domain of Gal4 which is a yeast transcription factor, and ligand binding domain of human PPAR 2 are fused, i.e., a fused product between the amino acids 1 to 147 of Gal4 transcription factor and the amino acids 182 to 505 of human PPAR 2, was used. Furthermore, as a reporter vector, a firefly luciferase containing five copies of Gal4 recognition sequence in the promoter region was used. Plasmid transfection of the cells was performed according to a method which uses jetPEI (trade name, manufactured by Funakoshi Co., Ltd., Tokyo, Japan). […] After that, the luciferase activity and -galactosidase activity in the cell lysis solution were measured. […] The percentage of the luciferase activity of the Compound a or the Compound b (1 to 30 mol/L) was calculated when the luciferase activity of Rosiglitazone (3 to 10 mol/L) is 100% and the luciferase activity in the absence of the Compound a or the Compound b is 0%. […]

CCCCc1nc(C)n(-c2ncc(OC)cn2)c(=O)c1Cc1ccc(-c2ccccc2-c2noc(=O)[nH]2)cc1 [Compound b, 3-{4′-{[6-butyl-3-(5-methoxypyrimidin-2-yl)-2-methylpyrimidin-4(3H)-on-5-yl]methyl}biphenyl-2-yl}-1,2,4-oxadiazol-5(4H)-one]
effect of inhibiting the angiotensin II-induced blood pressure increase, compared with Compound a 3 mg/kg ([1]; oral 3 mg/kg): substantially the same degree as the administration of the Compound a with dosage of 3 mg/kg
inhibitory action on angiotensin II-induced blood pressure increase, 24 hours after the administration ([1]; oral, Compound a 1 or 3 mg/kg, Compound B 3 mg/kg, 24 hours after administration): its effect was almost completely lost 24 hours after the administration
percentage of the luciferase activity (Rosiglitazone = 100%, absence of compound = 0%) (human PPAR 2): 24%
